The results in this text go back to paper PMC11240924, “Isolation, Identification, and Biological Activities of a New Chlorin e6 Derivative” (International Journal of Molecular Sciences, 2024).

Data set [1] is described as follows: MTT cytotoxicity (PDT and dark), HT29. It is filed as cell-based, Human. The conditions noted are these: human, HT-29 cells, no illumination, MTT after 24 h. The source says:
(§1) B16F10 (KCLB80008), MIA PaCa-2 (KCLB21420), PANC-1 (KCLB21469), HT-29 (KCLB30038), AsPC-1 (KCLB21682), and Raw 264.7 (KCLB40071) cells were procured from the Korean Cell Line Bank (KCLB, Seoul, Republic of Korea). AsPC-1 and RAW264.7 were thawed and maintained in RPMI-1640 media (Life Technologies corporation, Carlsbad, CA, USA) supplemented with 10% fetal bovine serum (Life Technologies corporation, USA) and 1% penicillin and streptomycin (Life Technologies corporation, USA), while MIA PaCa-2, PANC-1, HT-29, and B16F10 cell lines were cultured in DMEM (Life technologies corporation, USA) containing 10% fetal bovine serum and 1% penicillin and streptomycin. All the cells were cultured at 37 °C in a 5% CO2 incubator.
(§2) After seeding B16F10 or MIA PaCa-2 at a density of 5 × 10^3 cells/well and PANC-1, HT-29, or AsPC-1 at a density of 1 × 10^4 cells/well in 96-well plates, the cells were incubated overnight at 37 °C in a CO2 incubator. The cells were exposed to different doses of either chlorin e6 or rhodin g7 7^1-ethyl ester (0, 2.5, 5, 10, 20, 40, and 80 µM) for 3 h. After the incubation, the cells were either subjected to a 660 nm laser with a power density of 50 mW (0.5 J/cm^2) or not and were further incubated for 24 h at 37 °C. Moreover, the MTT assay was used to analyze the cell viability. The absorbance values of 540 nm were then measured using a microplate reader (Multiskan GO, Thermo Fisher Scientific, Oy, Ratastie 2, FI-01620 Vantaa, Finland).

A further data set has as its system HT29. Put plainly: MTT cytotoxicity (PDT and dark), HT29. The conditions noted are these: Homo sapiens, HT-29, light or radiation study, 3 h exposure, 660 nm laser 0.5 J/cm^2, MTT after 24 h. Format: cell-based, Human.
From the text: as §1, §2

A short description of data set [2]: MTT cytotoxicity, statements over all cell lines of the panel. Format: cell-based. The conditions noted are these: mouse (B16F10), human (MIA PaCa-2, PANC-1, HT-29, AsPC-1), B16F10, MIA PaCa-2, PANC-1, HT-29 and AsPC-1 cells, read-out: cellular viability.
From the text: as §1
as §2, with “The cells were exposed to different doses of either chlorin e6 or rhodin g7 7^1-ethyl ester (0, 2.5, 5, 10, 20, 40, and 80 µM) for 3 h.” left out

For data set [3], the system named is B16F10, MIA PaCa-2, PANC-1, HT-29, AsPC-1. The description is as above. It is filed as cell-based.
From the text: as §1
as §2, with “The cells were exposed to different doses of either chlorin e6 or rhodin g7 7^1-ethyl ester (0, 2.5, 5, 10, 20, 40, and 80 µM) for 3 h.” left out

In the next data set the test system is BV2 cells. As to the kind of experiment: Cellular uptake (plate reader and FOBI), BV2. The conditions noted are these: 3 h; for fluorescence intensity of treated cells compared to control (uptake): BV2, 100 μΜ. Format: cell-based. How it is done:
A quantitly of 5 × 10^5 of MIA PaCa-2 and 2 × 10^5 of BV2 cells per well were seeded in a 6-well plate and were treated with or without chlorin e6 or rhodin g7 7^1-ethyl ester (10 and 100 μΜ). After 3 h, the cells were harvested and washed twice with 1 × phosphate buffered saline (DPBS) to remove the remaining chlorin e6 or rhodin g7 7^1-ethyl ester from the culture media and cell surfaces. The cells from each well were resuspended in 1 mL of 1 × DPBS and measured using FOBI and a plate reader. chlorin e6 or rhodin g7 7^1-ethyl ester-treated cells were divided into triplicate wells of a black-walled 96-well plate, each containing 100 µL. The measurement was taken immediately after aliquoting using a Spark Multimode Microplate Reader (Tecan Trading AG, Männedorf, Switzerland) for spectroscopy. The fluorescence was measured using excitation and emission peaks of 405 nm and 500–800 nm. For the FOBI analysis, 700 µL of chlorin e6 or rhodin g7 7^1-ethyl ester-treated cells was added to the e-tubes, and bioimaging was performed immediately using the fluorescence-labeled organism bioimaging instrument (FOBI) system (Cellgentek, Daejeon, Republic of Korea). Each image was exposed for 0.3 s, with a 405 nm wavelength LED, and an emmission light of 502 nm. The results were further quantitatively measured using the “NEOimage FOBI” software.

Data set [4] can be described thus: Singlet oxygen photogeneration (DPBF quenching). The settings on record: for change of DPBF absorbance at higher doses: 5 and 10 µM. The procedure:
Singlet oxygen photoregeneration was carried out using 1, 3-diphenylisobenzofuran (DPBF) in DMSO. DPBF is a selective ^1O2 acceptor that reacts with ^1O2. The sample solutions of DPBF (50 μM) which contained DPBF only (50 μM, as a control), MB (1, 5, and 10 μM), chlorin e6 (1, 5, and 10 μM), and rhodin g7 7^1-ethyl ester (1, 5, and 10 μM) were prepared under dark conditions. All of the samples were placed in a 96-well plate, which was covered with aluminum foil. The samples were then irradiated (660 nm, 50 mW, 0.5 J/cm^2) for 1 min and 40 s, and after irradiation, the visible spectra of the sample solutions were measured spectrophotometrically. The normalized absorbance of DPBF at 418 nm was measured in these samples. The ^1O2 photo-generation activities of MB, chlorin e6, and rhodin g7 7^1-ethyl ester can be compared with the different absorbance decay of each sample relative to the DPBF control sample.

The next data set deals with MIA-PaCa-2 cells. As to the kind of experiment: Detection of ROS with DCFH-DA after PDT. Format: cell-based, Human. The settings on record: for ROS level after PDT (DCFH-DA): MIA-PaCa-2, 1, 5, 10, 20, 40, and 80 μM, 3 h, laser. The procedure: MIA-PaCa-2 cells (density: 5 × 10^3 cells/well) were seeded onto 96-well plates and incubated in a complete medium for 24 h at 37 °C. Then, the medium was replaced with a fresh culture medium containing chlorin e6 or rhodin g7 7^1-ethyl ester at different concentrations (1, 5, 10, 20, 40, and 80 μM) and then incubated for 3 h at 37 °C. After incubation, the cells were washed three times with PBS, and the cells were irradiated using a 630 nm laser at a power of 100 mW/cm^2 for 300 s. After irradiation, a fresh culture medium containing 20 μM dichlorodihydrofluorescin diacetate (DCFH-DA) was added, and the cells were incubated for another 20 min. Fluorescence detection of DCFH-DA was performed via the fluorescence microplate reader using the Spark Multimode Microplate Reader (Tecan Trading AG, Männedorf, Switzerland).

[5] abbreviates: complete absence of illumination, read-out: IC50 values dark toxicity, range over cell lines.
[6] abbreviates: light or radiation study, PDT, light dose 0.5 J/cm^2, five cancer cell lines, read-out: IC50 values post illumination, range over cancer cell lines.

Each structure is given as a SMILES string. Read-outs that look alike come from different tables or passages of the source. Where only a bound is given, the exact number is not on record here.

With `C=Cc1c(C)c2cc3nc(c(CC(=O)O)c4[nH]c(cc5nc(cc1[nH]2)C(C)=C5CC)c(C)c4C(=O)O)[C@@H](CCC(=O)O)[C@@H]3C` [chlorin e6], the IC50 in data set [1] is 543 µM; in the data set on HT29 it was 28.1 µM; in data set [3] (setting [5]), 250 to 564 µM; in data set [3] (setting [6]) it was 17.6 to 33.8 µM. For the same compound, the viability in data set [2] (chlorin e6 dark, concentrations as high as 169.2 µM) is no less than 90%; in data set [2] (chlorin e6 dark, concentrations up to 729.4 µM, all cell lines), less than 10%. In addition, the cellular viability in data set [3] (chlorin e6-PDT, concentrations greater than 59.8 µM, all cell lines) is given as 10%. The viability at 7.8 µM in data set [3] (chlorin e6-PDT, dose of 7.8 µM, all cell lines, vs vehicle-treated control) is no less than 90%. Further, in the data set on BV2 cells, the “fluorescence intensity of treated cells compared to control (uptake)” value is “significant increase in fluorescence intensity”. Also, in data set [4], the “change of DPBF absorbance at higher doses” value is listed as “large increase in DPBF absorbance”. Moreover, in the data set on MIA-PaCa-2 cells, the “ROS level after PDT (DCFH-DA)” value was “dose-dependent increase in ROS”.

On to `C=Cc1c(C)c2cc3nc(c(CC(=O)O)c4[nH]c(cc5nc(cc1[nH]2)C(C(=O)OCC)=C5CC)c(C)c4C(=O)O)[C@@H](CCC(=O)O)[C@@H]3C` [rhodin g7 7^1-ethyl ester], for which the IC50 in data set [1] is 223 µM; with HT29, 30.1 µM; in data set [3] (setting [5]) it was 163 to 389 µM; in data set [3] (setting [6]), 8.4 to 49.1 µM. Besides, the viability is no less than 90% in data set [2] (rhodin g7 7^1-ethyl ester dark, concentrations as high as 37.4 µM) and less than 10% in data set [2] (rhodin g7 7^1-ethyl ester dark, doses as high as 660 µM, all cell lines). The “higher cytotoxicity compared to chlorin e6” value in data set [3] (laser 0.5 J/cm^2, majority of the cancer cell lines) amounted to 2 fold. The same compound displayed a cellular viability in data set [3] (rhodin g7 7^1-ethyl ester PDT, concentrations higher than 53.7 µM, all cell lines) of 10%. The “fluorescence intensity of treated cells compared to control (uptake)” value in the data set on BV2 cells is listed as “significant increase in fluorescence intensity”. For the same compound, the “fluorescence intensity relative to chlorin e6 (uptake)” value in the data set with BV2 cells (BV2, FOBI system, 10 μΜ) amounted to 1.1 times; in the data set on BV2 cells (BV2, FOBI system, 100 μΜ), 1.4 times; in the data set on BV2 cells (BV2, plate reader, 10 μΜ) it was 2.2 times; in the data set on BV2 cells (BV2, plate reader, 100 μΜ) it was 2 times. Also, in data set [4] (1 µM), the “more singlet oxygen compared to chlorin e6 alone” value is reported as 11.12%. For the same compound, the “change of DPBF absorbance at higher doses” value in data set [4] is reported as “large increase in DPBF absorbance”. For the same compound, in the data set on MIA-PaCa-2 cells, the “ROS level after PDT (DCFH-DA)” value is on record as “dose-dependent increase in ROS”. Further, in the data set on MIA-PaCa-2 cells (MIA-PaCa-2, all concentrations (1-80 μM)), the “ROS production compared to chlorin e6-PDT” value is on record as “likely to produce more ROS than chlorin e6-PDT”.
